Results on eleven molecules are retold here after US7312336B2, “Compounds with analgesic effect” (AstraZeneca Canada Inc., priority 1996, dated 2007).

Each structure is given as a SMILES string. Where a name gives a salt, the structure may show the parent alone.

Test system in the first series: not given
To be noted: background statement; cited from earlier work.
`Oc1ccc2c3c1O[C@H]1c4[nH]c5ccccc5c4C[C@@]4(O)[C@@H](C2)N(CC2CC2)CC[C@]314` [naltrindole]: the analgesic activity entry is reported as “no analgesic activity”.

Test system in another series: not given
Details: not given
For orientation: melting point means the temperature of the solid-liquid transition. `CCN(CC)C(=O)c1ccc(C(=C2CCN(C3CCCCC3)CC2)c2ccccc2)cc1` (as salt: HCl) displayed a melting point of 105 to 109 °C.
Regarding `CCN(CC)C(=O)c1ccc(C(O)(c2cccc3cccnc23)C2CCN(C(=O)OC(C)(C)C)CC2)cc1` (stereo not drawn), the melting point was 100 to 105 °C.
On the same count and under the same terms, then `CCN(CC)C(=O)c1ccc(C(=C2CCN(Cc3ccc(OC)cc3)CC2)c2ccccc2)cc1` (as salt: HCl), with 100 to 110 °C.
Still for that read-out and setting: under `CCN(CC)C(=O)c1ccc(C(=C2CCNCC2)c2cccc3cccnc23)cc1` (as salt: HCl) stands > 170 °C (dec.); under `CCN(CC)C(=O)c1ccc(C(=C2CCN(Cc3ccccc3)CC2)c2ccc(Cl)cc2)cc1` (as salt: salt), 100 to 110 °C.
For the molecule `CCN(CC)C(=O)c1ccc(C(=C2CCN(Cc3ccccc3)CC2)c2cccc(OC)c2)cc1` (as salt: HCl), the melting point fell in the range of 100 to 110 °C.
Still for that read-out and setting: then `CCN(CC)C(=O)c1ccc(C(=C2CCN(Cc3ccccc3)CC2)c2ccccc2)cc1` (as salt: HCl), with 230 to 245 °C; and `CCN(CC)C(=O)c1ccc(C(=C2CCN(Cc3ccc(Cl)cc3Cl)CC2)c2ccccc2)cc1` (as salt: HCl), with 95 to 110 °C; and `CCN(CC)C(=O)c1ccc(C(=C2CCNCC2)c2cccc(OC)c2)cc1` (as salt: HCl), with > 90 °C (dec.).
The same measure, in the same setting: under `CCN(CC)C(=O)c1ccc(C(O)(c2cccc(OC)c2)C2CCN(C(=O)OC(C)(C)C)CC2)cc1` (stereo not drawn) stands 95 to 103 °C.

In a further series the target is δ receptor (Homo sapiens, UniProt P41143). To be noted: background statement; cited from earlier work.
Chain of δ receptor (P41143 whole entry): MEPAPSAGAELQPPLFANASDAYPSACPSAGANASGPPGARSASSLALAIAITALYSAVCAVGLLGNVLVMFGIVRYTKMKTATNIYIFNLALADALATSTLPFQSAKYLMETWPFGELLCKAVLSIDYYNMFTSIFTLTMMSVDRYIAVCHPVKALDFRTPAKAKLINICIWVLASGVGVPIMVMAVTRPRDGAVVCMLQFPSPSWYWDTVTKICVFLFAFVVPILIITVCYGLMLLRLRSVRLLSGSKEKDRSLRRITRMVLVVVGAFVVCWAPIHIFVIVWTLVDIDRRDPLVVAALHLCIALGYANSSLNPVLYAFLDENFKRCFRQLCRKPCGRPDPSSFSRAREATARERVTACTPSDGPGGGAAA
Take `Oc1ccc2c3c1O[C@H]1c4[nH]c5ccccc5c4C[C@@]4(O)[C@@H](C2)N(CC2CC2)CC[C@]314` [naltrindole]: the “selectivity for the δ receptor vs. μ receptor binding” value was below 10 fold.
